Data published in patent US20100130449A1, “Use of Tri-Substituted Glycerol Compounds for the Treatment of Radiation Injuries” (ALPHAPTOSE GMBH, priority 2006, published 2010).

Assays:
Assay type in all cases: in vivo
X-ray irradiated mice = assay: Survival of X-ray irradiated mice, ET18-OCH3 given after irradiation; conditions: for Death/Survival treated: 2 × 25 mg/kg intravenous 6 hours and 12 hours after irradiation
Protocol: The efficacy of 1-O-octadecyl-2-O-methyl-glycero-3-phosphocholine (in the following referred to as “ET18-OCH3”) as a radioprotectant in the treatment of an acute radiation injury that is caused by (mid)lethal radiation doses was analyzed by determining its influence on the survival rate of mice and on the hematological syndrome of the radiation injury in response to different types of radiation.
A single dose of 25 mg/kg ET18-OCH3 was administered at a time intravenously to 25 mice 12 hours after exposure to an X-ray dose of 650 cGy (centiGray). Only one of the 25 treated mice died, as compared to 6 of the 25 mice in the control group.
After an intravenous administration of 25 mg/kg ET18-OCH3 6 hours and 12 hours after X-ray irradiation, respectively, the following results were obtained (Table 1). The chi-square distribution is given for all positive values. The chi-square test was used for comparing the results of the treated versus the control animals.
After an oral administration of 25 mg/kg ET18-OCH3 6 hours and 24 hours after exposure to a X-ray dose of 700 cGy X-ray irradiation, respectively, 2 of 25 treated animals died, as compared to 7 of 25 of the control animals.

neutron irradiated mice [1] = assay: Survival of mice after neutron radiation, ET18-OCH3 given after irradiation; conditions: 400-420 cGy neutron radiation, 50 mg/kg subcutaneous
Protocol: Mice were irradiated using a van de Graaf generator with of 3-8 MeV neutrons. The radiation doses used in the following analyses were 400, 410, and 420 cGy for each third of the treated and the control mice, respectively. A single dose of 50 mg/kg ET18-OCH3 was administered to half of the mice by subcutaneous injection.

neutron irradiated mice [2] = assay: Cell numbers in the peripheral blood of mice after neutron irradiation; conditions: for Granulocytes, median/interquartile distance / Leukocytes, median/interquartile distance / Lymphocytes, median/interquartile distance / Thrombocytes, median/interquartile distance: 300 cGy neutron
Protocol: Mice were irradiated using a van de Graaf generator with of 3-8 MeV neutrons. […] A single dose of 50 mg/kg ET18-OCH3 was administered to half of the mice by subcutaneous injection.
As the therapy experiments were carried out with an irradiation dose range, in which the hematological syndrome of the radiation injury predominates, the evaluation of the therapeutic effect of the drug on the blood forming (hematopoetic) system is important.

gamma-radiated mice [3] = assay: Survival of mice after gamma irradiation, single dose of ET18-OCH3 before or after irradiation
Protocol: FIG. 1 depicts the radioprotective effect of ET18-OCH3 on the survival rate of mice. ET18-OCH3 was administered as a single dose of 50 mg/kg body weight to each of 40 mice (20 control mice, 20 test mice). 24 hours later, the 20 test mice were exposed to a gamma radiation dose of 7.9 Gy (Gray) and 8.7 Gy, respectively. The survival rates were monitored for 30 days.

neutron irradiated mice [4] = assay: Survival of mice, ET18-OCH3 given 1 day before neutron irradiation
Description: The effect of ET18-OCH3 before applying different doses of neutron radiation on the survival rates of mice are summarized in Table 5.

neutron irradiated mice [5] = assay: White blood cell count (hemogram) after ET18-OCH3 and neutron irradiation
Protocol: FIG. 2 depicts the radioprotective effect of ET18-OCH3 (referred to as “ALP”) on the lymphocyte numbers of mice. Mice were treated with a single dose 70 mg/kg ET18-OCH3 (administered subcutaneously) 24 hours before exposure to neutron radiation (radiation dose 2.0 Gy). […]
FIG. 3 depicts the radioprotective effect of ET18-OCH3 (referred to as “ALP”) on the granulocyte numbers of mice. The experiment was performed in an analogous manner as described in FIG. 2.
The radioprotective effect of ET18-OCH3 on lymphocyte and granulocyte numbers in mice is shown in FIG. 2 and FIG. 3, respectively.

gamma-radiated mice [6] = assay: Survival of mice after gamma irradiation, single dose of ET18-OCH3 before or after irradiation; remark: listed apart in the source
[7] = day 7, 50 mg/kg s.c. 30 min after irradiation
[8] = day 7, 50 mg/kg s.c. 2 h after irradiation
[9] = day 14, 50 mg/kg s.c. 30 min after irradiation
[10] = day 14, 50 mg/kg s.c. 2 h after irradiation
[11] = gamma 790 cGy, 50 mg/kg, 1 d before irradiation
[12] = gamma 870 cGy, 50 mg/kg, 1 d before irradiation
[13] = neutron 425 cGy, 50 mg/kg subcutaneously 1 day before irradiation
[14] = neutron 425 cGy, 70 mg/kg subcutaneously 1 day before irradiation
[15] = neutron 450 cGy, 50 mg/kg subcutaneously 1 day before irradiation
[16] = neutron 450 cGy, 70 mg/kg subcutaneously 1 day before irradiation
[17] = gamma 750 cGy, 30 mg/kg, a.r. (after radiation)
[18] = gamma 750 cGy, 50 mg/kg, 1 d before irradiation
[19] = gamma 775 cGy, 40 mg/kg, a.r. (after radiation)
[20] = gamma 775 cGy, 50 mg/kg, 2 h before irradiation
[21] = gamma 775 cGy, 50 mg/kg, 1 d before irradiation
[22] = gamma 800 cGy, 40 mg/kg, a.r. (after radiation)
[23] = gamma 800 cGy, 50 mg/kg, 2 h before irradiation
[24] = gamma 830 cGy, 50 mg/kg, 1 d before irradiation

CCCCCCCCCCCCCCCCCCOCC(COP(=O)([O-])OCC[N+](C)(C)C)OC (stereo not drawn) [ET18-OCH3, 1-O-octadecyl-2-O-methyl-glycero-3-phosphocholine]
Death/Survival treated (X-ray irradiated mice; X-ray dose 650 cGy): 2/28 | Death/Survival treated (X-ray irradiated mice; X-ray dose 700 cGy): 3/25 | Death/Survival treated (X-ray irradiated mice; X-ray dose 750 cGy): 14/16 | Death/Survival treated (X-ray irradiated mice; X-ray dose 800 cGy): 22/8 | treated animals died (X-ray irradiated mice; oral 25 mg/kg 6 hours and 24 hours after X-ray dose of 700 cGy, control 7 of 25 died): 2 of 25 | treated mice died (X-ray irradiated mice; single dose 25 mg/kg intravenously 12 hours after X-ray dose of 650 cGy, control 6 of 25 died): one of the 25 | LD50/30 X-ray dose (X-ray irradiated mice; treated animals, 25 mg/kg intravenous 6 and 12 hours after irradiation, untreated controls 688.1±38.6): 749±37.1 cGy | X-ray mediated lethality (X-ray irradiated mice; treated mice compared to control mice): delayed | Survival/Death (neutron irradiated mice [1]; 30 min): 18 (75%)/6 (25%) | Survival/Death (neutron irradiated mice [1]; 2 h): 13 (54%)/11 (46%) | Survival/Death (neutron irradiated mice [1]; 6 h): 12 (52%)/11 (48%) | Granulocytes, median/interquartile distance (neutron irradiated mice [2]; [7]): 209/202 | Leukocytes, median/interquartile distance (neutron irradiated mice [2]; [7]): 975/450 | Lymphocytes, median/interquartile distance (neutron irradiated mice [2]; [7]): 684/255 | Thrombocytes, median/interquartile distance (neutron irradiated mice [2]; [7]): 698/427 | Granulocytes, median/interquartile distance (neutron irradiated mice [2]; [8]): 240/304 | Leukocytes, median/interquartile distance (neutron irradiated mice [2]; [8]): 675/413 | Lymphocytes, median/interquartile distance (neutron irradiated mice [2]; [8]): 446/132 | Thrombocytes, median/interquartile distance (neutron irradiated mice [2]; [8]): 900/315 | concentration of leukocytes and granulocytes in the peripheral blood (neutron irradiated mice [2]; day 10-15 after irradiation, when the irradiated mice died): significantly increases | Granulocytes, median/interquartile distance (neutron irradiated mice [2]; [9]): 3063/3121 | Leukocytes, median/interquartile distance (neutron irradiated mice [2]; [9]): 8675/11827 | Lymphocytes, median/interquartile distance (neutron irradiated mice [2]; [9]): 7439/6942 | Thrombocytes, median/interquartile distance (neutron irradiated mice [2]; [9]): 533/263 | Granulocytes, median/interquartile distance (neutron irradiated mice [2]; [10]): 4189/2282 | Leukocytes, median/interquartile distance (neutron irradiated mice [2]; [10]): 9975/5863 | Lymphocytes, median/interquartile distance (neutron irradiated mice [2]; [10]): 5101/3765 | Thrombocytes, median/interquartile distance (neutron irradiated mice [2]; [10]): 987/464 | Death (gamma-radiated mice [3]; [11]): 2 (10%) | Survival (gamma-radiated mice [3]; [11]): 18 (90%) | Death (gamma-radiated mice [3]; [12]): 7 (35%) | radioprotective effect on survival (gamma-radiated mice [3]; similar when given either 24 hours or shortly before gamma irradiation): significant radioprotective effect | Death (neutron irradiated mice [4]; [13]): 11 (73%) | Survival (neutron irradiated mice [4]; [13]): 4 (27%) | Death (neutron irradiated mice [4]; [14]): 10 (67%) | Survival (neutron irradiated mice [4]; [14]): 5 (33%) | Death (neutron irradiated mice [4]; [15]): 8 (26%) | Survival (neutron irradiated mice [4]; [15]): 22 (73%) | Death (neutron irradiated mice [4]; [16]): 12 (80%) | Survival (neutron irradiated mice [4]; [16]): 3 (20%) | Death (neutron irradiated mice [4]; neutron 475 cGy, 50 mg/kg subcutaneously 1 day before irradiation): 19 (76%) | reduction of leukocyte numbers (both of lymphocytes and granulocytes) compared to untreated controls (neutron irradiated mice [5]; 50 mg/kg and 70 mg/kg, neutron irradiation, not statistically significant, 5 experiments, n=90): slightly increased | difference between the administration of 50 mg/kg and 70 mg/kg (neutron irradiated mice [5]; leukocyte numbers after neutron irradiation): No statistically significant difference | leukocyte numbers (both lymphocytes and granulocytes) (neutron irradiated mice [5]; starting at day 3 after irradiation, significant at day 7 (4 experiments; n=30, p<0.003)): increase in leukocyte numbers | number of lymphocyte relative to the normal value (neutron irradiated mice [5]; treated animals at mid-lethal irradiation doses, average): about one tenth | Death (gamma-radiated mice [6]; [17]): 1 (6%) | Survival (gamma-radiated mice [6]; [17]): 17 (94%) | Death (gamma-radiated mice [6]; [18]): 0 | Survival (gamma-radiated mice [6]; [18]): 20 (100%) | Death (gamma-radiated mice [6]; [19]): 12 (60%) | Survival (gamma-radiated mice [6]; [19]): 8 (40%) | Death (gamma-radiated mice [6]; [20]): 5 (25%) | Survival (gamma-radiated mice [6]; [20]): 15 (75%) | Death (gamma-radiated mice [6]; [21]): 2 (10%) | Survival (gamma-radiated mice [6]; [21]): 18 (90%) | Death (gamma-radiated mice [6]; [22]): 10 (29%) | Survival (gamma-radiated mice [6]; [22]): 25 (71%) | Death (gamma-radiated mice [6]; [23]): 3 (15%) | Survival (gamma-radiated mice [6]; [23]): 17 (85%) | Death (gamma-radiated mice [6]; [24]): 3 (15%) | Survival (gamma-radiated mice [6]; [24]): 17 (85%) | Survival (gamma-radiated mice [6]; [12]): 13 (65%) | LD50/30 gamma radiation dose (gamma-radiated mice [6]; treated irradiated mice, ET18-OCH3 one day before irradiation, probit analysis, untreated irradiated controls 7.47 Gy): 8.98 Gy
